Reference: PubChem BioAssay (NCI)
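Results reflect a 48-hour exposure of cells in 96-well plates to compound at five concentrations. The concentration for 50% growth inhibition is given as GI50. TGI: concentration producing complete growth inhibition.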

Tests used:
Test in all cases: NCI tumour cell line growth inhibition, 48 h
[1] = tested on: MCF7 breast
[2] = tested on: BT-549 breast
[3] = tested on: MOLT-4 leukemia
[4] = tested on: SR leukemia
[5] = tested on: MALME-3M melanoma
[6] = tested on: MDA-MB-435
[7] = tested on: SN12C renal
[8] = tested on: OVCAR-8 ovarian
[9] = tested on: NCI-H460 lung
[10] = tested on: HS 578T breast
[11] = tested on: UACC-257 melanoma
[12] = tested on: LOX IMVI melanoma
[13] = tested on: TK-10 renal
[14] = tested on: SNB-75 CNS
[15] = tested on: SK-MEL-5 melanoma
[16] = tested on: OVCAR-3 ovarian
[17] = tested on: EKVX NSCLC
[18] = tested on: HOP-62 NSCLC
[19] = tested on: MDA-MB-231 breast
[20] = tested on: COLO 205 colon
[21] = tested on: HCC-2998 colon
[22] = tested on: K-562 leukemia
[23] = tested on: DU-145 prostate
[24] = tested on: CAKI-1 renal
[25] = tested on: M14 melanoma
[26] = tested on: HT29 colon
[27] = tested on: SF-295 CNS
[28] = tested on: U251 CNS
[29] = tested on: SW-620 colon
[30] = tested on: SF-268 CNS
[31] = tested on: SK-MEL-2 melanoma
[32] = tested on: NCI-H226 lung
[33] = tested on: UACC-62 melanoma
[34] = tested on: HCT-116 colon
[35] = tested on: RXF 393 renal
[36] = tested on: NCI-H23 lung
[37] = tested on: SF-539 CNS
[38] = tested on: RPMI-8226 leukemia
[39] = tested on: HCT-15 colon
[40] = tested on: SK-OV-3 ovarian
[41] = tested on: SNB-19 CNS
[42] = tested on: NCI-H522 lung
[43] = tested on: CCRF-CEM leukemia
[44] = tested on: ACHN renal
[45] = tested on: NCI/ADR-RES ovarian
[46] = tested on: 786-0 renal
[47] = tested on: SK-MEL-28 melanoma
[48] = tested on: HL-60(TB) leukemia
[49] = tested on: OVCAR-4 ovarian
[50] = tested on: IGROV1 ovarian
[51] = tested on: HOP-92 NSCLC
[52] = tested on: OVCAR-5 ovarian
[53] = tested on: UO-31 renal
[54] = tested on: A498 renal
[55] = tested on: T-47D breast
[56] = tested on: PC-3 prostate
[57] = tested on: KM12 colon
[58] = tested on: A549 NSCLC
[59] = tested on: MDA-N

CC(=O)[C@H]1CCC/C=C/[C@@H]2C[C@H](O)C[C@H]2[C@H](O)/C=C/C(=O)O1
GI50 [1]: 0.363 µM | TGI [1]: 5.81 µM | GI50 [2]: 0.657 µM | TGI [2]: > 100 µM | GI50 [3]: 0.321 µM | GI50 [4]: 0.313 µM | TGI [4]: 86.9 µM | GI50 [5]: 0.27 µM | TGI [5]: 3.4 µM | GI50 [6]: 0.428 µM | TGI [6]: > 100 µM | GI50 [7]: 2.17 µM | TGI [7]: > 100 µM | GI50 [8]: 0.982 µM | TGI [8]: > 100 µM | GI50 [9]: 2.67 µM | TGI [9]: > 100 µM | GI50 [10]: 2.44 µM | TGI [10]: > 100 µM | GI50 [11]: 0.332 µM | GI50 [12]: 0.212 µM | TGI [12]: 0.633 µM | GI50 [13]: 0.398 µM | TGI [13]: 3.17 µM | GI50 [14]: 0.237 µM | TGI [14]: > 100 µM | GI50 [15]: 0.163 µM | TGI [15]: 0.318 µM | GI50 [16]: 0.393 µM | TGI [16]: 5.01 µM | GI50 [17]: 0.932 µM | TGI [17]: > 100 µM | GI50 [18]: 2.08 µM | TGI [18]: > 30.2 µM | GI50 [19]: 0.487 µM | TGI [19]: 2.39 µM | GI50 [20]: 0.264 µM | TGI [20]: 0.631 µM | GI50 [21]: 1.33 µM | TGI [21]: 5.07 µM | GI50 [22]: 0.579 µM | TGI [22]: > 100 µM | GI50 [23]: 2.99 µM | TGI [23]: > 100 µM | GI50 [24]: 0.645 µM | TGI [24]: > 23.3 µM | GI50 [25]: 0.467 µM | TGI [25]: > 25.2 µM | GI50 [26]: 0.253 µM | TGI [26]: 1.44 µM | GI50 [27]: 4.33 µM | TGI [27]: > 100 µM | GI50 [28]: 0.913 µM | TGI [28]: > 100 µM | GI50 [29]: 0.344 µM | TGI [29]: 1.56 µM | GI50 [30]: 0.448 µM | TGI [30]: > 100 µM | GI50 [31]: 0.689 µM | TGI [31]: 2.91 µM | GI50 [32]: 0.976 µM | TGI [32]: 2.28 µM | GI50 [33]: 0.498 µM | TGI [33]: > 100 µM | GI50 [34]: 0.337 µM | TGI [34]: 1.18 µM | GI50 [35]: 0.236 µM | TGI [35]: 0.742 µM | GI50 [36]: 0.527 µM | TGI [36]: 5.58 µM | GI50 [37]: 1.01 µM | TGI [37]: > 100 µM | GI50 [38]: 0.36 µM | GI50 [39]: 1.05 µM | TGI [39]: > 44.7 µM | GI50 [40]: 2.43 µM | TGI [40]: > 31.6 µM | GI50 [41]: 1.64 µM | TGI [41]: > 100 µM | GI50 [42]: 0.805 µM | TGI [42]: 2.74 µM | GI50 [43]: 0.395 µM | TGI [43]: > 62.7 µM | GI50 [44]: 0.674 µM | TGI [44]: > 26.4 µM | GI50 [45]: 0.527 µM | TGI [45]: 3.46 µM | GI50 [46]: 0.193 µM | TGI [46]: 0.392 µM | GI50 [47]: 0.261 µM | TGI [47]: 0.923 µM | GI50 [48]: 0.261 µM | TGI [48]: 0.712 µM | GI50 [49]: 0.434 µM | TGI [49]: > 22.2 µM | GI50 [50]: 0.803 µM | TGI [50]: > 24 µM | GI50 [51]: 4.93 µM | TGI [51]: > 100 µM | GI50 [52]: 2.1 µM | TGI [52]: > 62.6 µM | GI50 [53]: 0.296 µM | TGI [53]: > 100 µM | GI50 [54]: 0.118 µM | TGI [54]: 1.37 µM | GI50 [55]: 1.17 µM | TGI [55]: 3.63 µM | GI50 [56]: 0.678 µM | TGI [56]: > 100 µM | GI50 [57]: 0.75 µM | TGI [57]: > 19.7 µM | GI50 [58]: 1.17 µM | TGI [58]: > 100 µM

CCOC(=O)C(C#N)C1=CC(=O)C(=O)c2ccc(O)cc21 (stereo not given)
TGI [1]: > 100 µM | TGI [3]: > 100 µM | TGI [4]: > 100 µM | TGI [5]: > 100 µM | TGI [6]: 39.9 µM | TGI [7]: > 100 µM | TGI [8]: > 100 µM | TGI [9]: > 100 µM | TGI [10]: > 100 µM | TGI [11]: > 100 µM | TGI [12]: > 100 µM | TGI [13]: > 100 µM | TGI [14]: > 100 µM | TGI [15]: > 100 µM | TGI [16]: > 100 µM | TGI [17]: > 100 µM | TGI [18]: > 100 µM | TGI [19]: > 100 µM | TGI [20]: > 100 µM | TGI [21]: > 100 µM | TGI [22]: > 100 µM | TGI [23]: > 100 µM | TGI [24]: > 100 µM | TGI [25]: 51.3 µM | TGI [26]: > 100 µM | TGI [27]: > 100 µM | TGI [28]: > 100 µM | TGI [29]: > 100 µM | TGI [30]: > 100 µM | TGI [31]: > 100 µM | TGI [59]: 32.7 µM | TGI [32]: > 100 µM | TGI [33]: 36.9 µM | TGI [34]: > 100 µM | TGI [35]: > 100 µM | TGI [36]: 58 µM | TGI [37]: > 100 µM | TGI [38]: > 100 µM | TGI [39]: > 100 µM | TGI [40]: > 100 µM | TGI [41]: > 100 µM | TGI [42]: > 100 µM | TGI [43]: > 100 µM | TGI [44]: > 100 µM | TGI [45]: > 100 µM | TGI [46]: > 100 µM | TGI [47]: > 100 µM | TGI [48]: > 100 µM | TGI [49]: > 100 µM | TGI [50]: > 100 µM | TGI [52]: > 100 µM | TGI [53]: > 100 µM | TGI [54]: > 100 µM | TGI [55]: > 100 µM | TGI [56]: > 100 µM | TGI [57]: > 100 µM | TGI [58]: > 100 µM
